Test results taken from patent US8178658B2 (Dow AgroSciences, LLC, priority 2008, dated 2012).

Experiments:
[1] = system: beet armyworm (BAW; Spodoptera exigua: Lepidoptera); assay: 96-well microtiter plate-based high throughput (HTS) diet bioassay on beet armyworm (BAW HTS); format: in vivo; details: BAW eggs, 12 μg test compound per well, mortality at 6 d post-treatment, mortality class
In short: (§1)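 HTS: eggs on diet topped with 12 μg cpd/well; dark, 29° C; mortality day 6; mean of 6 reps. Tray: 3–5 L2 larvae/well; diet dosed 50 μg/cm^2; 25° C, 14:10 L:D; 6 d; mean of 8 wells. Scored as ≥50% mortality or not.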

[2] = system: beet armyworm (BAW; Spodoptera exigua: Lepidoptera); assay: 128-well diet tray assay on beet armyworm (BAW 50); format: in vivo; details: 128-well diet tray assay, 50 μg/cm^2 of test compound on diet, second instar BAW larvae, mortality class
In short: as §1

[3] = 96-well microtiter plate HTS diet assay

SMILES	BAW HTS ([1]; 96-well HTS diet bioassay)	BAW HTS [1, 3]	BAW 50 ug/cm2 [2]	BAW HTS ([1]; 96-well HTS diet assay)	pest or weed control at 12 µg/well, 12 µg/well ([1]; Spodoptera exigua, 144 h, 96-well HTS diet assay, read-out: BAW HTS) [%]	pest or weed control at 50 µg/cm2, 50 µg/cm2 ([2]; Spodoptera exigua, 144 h, read-out: BAW 50 ug/cm2) [%]
CCOC1C(OC)C(C)OC(ON=Cc2ccc(-c3nc(-c4ccc(OC(F)(F)F)cc4)ns3)cc2)C1OC (stereo not shown) [Compound 128]	B (either (1) the compound was tested and less than 50 percent mortality was observed or (2) the compound was not tested)	B (either (1) the compound was tested and less than 50 percent mortality was observed or (2) the compound was not tested)	A (the compound was tested and at least 50 percent mortality was observed)	–	–	–
CCOC1C(OC)C(C)OC(ON=Cc2ccc(-c3nsc(-c4ccc(OC(F)(F)F)cc4)n3)cc2)C1OC (stereo not shown) [Compound 129]	B (either (1) the compound was tested and less than 50 percent mortality was observed or (2) the compound was not tested)	B (either (1) the compound was tested and less than 50 percent mortality was observed or (2) the compound was not tested)	A (the compound was tested and at least 50 percent mortality was observed)	–	–	–
COC1C(C)OC(ON=Cc2ccc(-n3nnc(-c4ccc(C(F)(F)F)cc4)n3)cc2)C(OC)C1OC (stereo not shown) [Compound 131]	–	B (either (1) the compound was tested and less than 50 percent mortality was observed or (2) the compound was not tested)	B (either (1) the compound was tested and less than 50 percent mortality was observed or (2) the compound was not tested)	B (either (1) the compound was tested and less than 50 percent mortality was observed or (2) the compound was not tested)	–	–
CO[C@@H]1[C@@H](OC)[C@H](C)O[C@@H](O/N=C/c2ccc(-c3ccnc(-c4ccc(OC(F)(F)F)cc4)c3)cc2)[C@@H]1OC [Compound 132]	–	B (either (1) the compound was tested and less than 50 percent mortality was observed or (2) the compound was not tested)	A (the compound was tested and at least 50 percent mortality was observed)	–	< 50	> 50
COC1C(C)OC(ON=Cc2ccc(-c3cc(-c4ccc(OC(F)(F)F)cc4)ccn3)cc2)C(OC)C1OC (stereo not shown) [Compound 133]	–	B (either (1) the compound was tested and less than 50 percent mortality was observed or (2) the compound was not tested)	A (the compound was tested and at least 50 percent mortality was observed)	B (either (1) the compound was tested and less than 50 percent mortality was observed or (2) the compound was not tested)	–	–
COC1C(C)OC(ON=Cc2ccc(-c3cccc(-c4ccc(OC(F)(F)F)cc4)n3)cc2)C(OC)C1OC (stereo not shown) [Compound 134]	–	B (either (1) the compound was tested and less than 50 percent mortality was observed or (2) the compound was not tested)	A (the compound was tested and at least 50 percent mortality was observed)	B (either (1) the compound was tested and less than 50 percent mortality was observed or (2) the compound was not tested)	–	–
COC1C(C)OC(ON=Cc2ccc(-c3cncc(-c4ccc(OC(F)(F)F)cc4)c3)cc2)C(OC)C1OC (stereo not shown) [Compound 135]	–	B (either (1) the compound was tested and less than 50 percent mortality was observed or (2) the compound was not tested)	A (the compound was tested and at least 50 percent mortality was observed)	B (either (1) the compound was tested and less than 50 percent mortality was observed or (2) the compound was not tested)	–	–
COC1C(C)OC(ON=Cc2ccc(-c3ncc(-c4ccc(OC(F)(F)F)cc4)cn3)cc2)C(OC)C1OC (stereo not shown) [Compound 136]	–	B (either (1) the compound was tested and less than 50 percent mortality was observed or (2) the compound was not tested)	A (the compound was tested and at least 50 percent mortality was observed)	B (either (1) the compound was tested and less than 50 percent mortality was observed or (2) the compound was not tested)	–	–
COC1C(C)OC(ON=Cc2ccc(-c3cnc(-c4ccc(OC(F)(F)F)cc4)nc3)cc2)C(OC)C1OC (stereo not shown) [Compound 137]	–	B (either (1) the compound was tested and less than 50 percent mortality was observed or (2) the compound was not tested)	A (the compound was tested and at least 50 percent mortality was observed)	B (either (1) the compound was tested and less than 50 percent mortality was observed or (2) the compound was not tested)	–	–
COC1C(C)OC(ON=Cc2ccc(-c3nccc(-c4ccc(OC(F)(F)F)cc4)n3)cc2)C(OC)C1OC (stereo not shown) [Compound 138]	–	A (the compound was tested and at least 50 percent mortality was observed)	A (the compound was tested and at least 50 percent mortality was observed)	A (the compound was tested and at least 50 percent mortality was observed)	–	–
COC1C(C)OC(ON=Cc2ccc(-c3ccnc(-c4ccc(OC(F)(F)F)cc4)n3)cc2)C(OC)C1OC (stereo not shown) [Compound 139]	–	A (the compound was tested and at least 50 percent mortality was observed)	A (the compound was tested and at least 50 percent mortality was observed)	A (the compound was tested and at least 50 percent mortality was observed)	–	–
COC1C(C)OC(ON=Cc2ccc(-c3cc(-c4ccc(OC(F)(F)F)cc4)ncn3)cc2)C(OC)C1OC (stereo not shown) [Compound 140]	–	B (either (1) the compound was tested and less than 50 percent mortality was observed or (2) the compound was not tested)	A (the compound was tested and at least 50 percent mortality was observed)	B (either (1) the compound was tested and less than 50 percent mortality was observed or (2) the compound was not tested)	–	–
CO[C@@H]1[C@@H](OC)[C@H](C)O[C@@H](O/N=C/c2ccc(-c3ncc(-c4ccc(OC(F)(F)C(F)(F)F)cc4)cn3)cc2)[C@@H]1OC [Compound 141]	–	A (the compound was tested and at least 50 percent mortality was observed)	A (the compound was tested and at least 50 percent mortality was observed)	A (the compound was tested and at least 50 percent mortality was observed)	–	–
CCOC1C(OC)C(C)OC(ON=Cc2ccc(-c3ncc(-c4ccc(OC(F)(F)C(F)(F)F)cc4)cn3)cc2)C1OC (stereo not shown) [Compound 142]	–	A (the compound was tested and at least 50 percent mortality was observed)	A (the compound was tested and at least 50 percent mortality was observed)	A (the compound was tested and at least 50 percent mortality was observed)	–	–
CCOC1C(OC)C(C)OC(ON=Cc2ccc(-c3ncc(-c4cccc(OC(F)(F)F)c4)cn3)cc2)C1OC (stereo not shown) [Compound 143]	–	B (either (1) the compound was tested and less than 50 percent mortality was observed or (2) the compound was not tested)	A (the compound was tested and at least 50 percent mortality was observed)	B (either (1) the compound was tested and less than 50 percent mortality was observed or (2) the compound was not tested)	–	–
CCCOC1C(OC)C(C)OC(ON=Cc2ccc(-c3ncc(-c4ccc(OC(F)(F)F)cc4)cn3)cc2)C1OC (stereo not shown) [Compound 144]	–	B (either (1) the compound was tested and less than 50 percent mortality was observed or (2) the compound was not tested)	A (the compound was tested and at least 50 percent mortality was observed)	B (either (1) the compound was tested and less than 50 percent mortality was observed or (2) the compound was not tested)	–	–
CCOC1C(OC)C(C)OC(ON=Cc2cccc(-c3ncc(-c4ccc(OC(F)(F)F)cc4)cn3)c2)C1OC (stereo not shown) [Compound 146]	–	B (either (1) the compound was tested and less than 50 percent mortality was observed or (2) the compound was not tested)	A (the compound was tested and at least 50 percent mortality was observed)	B (either (1) the compound was tested and less than 50 percent mortality was observed or (2) the compound was not tested)	–	–
CCOC1C(OC)C(C)OC(ON=Cc2cccc(-c3ncc(-c4ccccc4OC(F)(F)F)cn3)c2)C1OC (stereo not shown) [Compound 147]	–	B (either (1) the compound was tested and less than 50 percent mortality was observed or (2) the compound was not tested)	B (either (1) the compound was tested and less than 50 percent mortality was observed or (2) the compound was not tested)	B (either (1) the compound was tested and less than 50 percent mortality was observed or (2) the compound was not tested)	–	–
CCOC1C(OC)C(C)OC(ON=Cc2ccc(-c3ncc(-c4ccc(OC(F)(F)F)cc4)cn3)cc2F)C1OC (stereo not shown) [Compound 148]	–	B (either (1) the compound was tested and less than 50 percent mortality was observed or (2) the compound was not tested)	A (the compound was tested and at least 50 percent mortality was observed)	B (either (1) the compound was tested and less than 50 percent mortality was observed or (2) the compound was not tested)	–	–
CCOC1C(OC)C(C)OC(ON=Cc2cccc(-c3ncc(-c4cccc(OC(F)(F)F)c4)cn3)c2)C1OC (stereo not shown) [Compound 149]	–	B (either (1) the compound was tested and less than 50 percent mortality was observed or (2) the compound was not tested)	A (the compound was tested and at least 50 percent mortality was observed)	B (either (1) the compound was tested and less than 50 percent mortality was observed or (2) the compound was not tested)	–	–
